Measured values from the supplement of paper PMC11061612.

Legend:
Experiment in all cases: combination Emax (second highest fraction inhibited in the dose matrix, 72 h); higher = more inhibition; extreme values may be limits of the assay
[1] = test system: LCLC-103H (Non-Small Cell Lung Carcinoma)
How it was run: (§1)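 Bliss excess equals the observed combination effect minus the expected value EA + EB − EA·EB, where EA and EB are the effects of each agent alone. Combination Emax is the second-highest inhibition within the matrix. Inhibition was scaled from CellTiter-Glo 2.0 luminescence, with 0 set by vehicle wells and 1 by blank wells, after 72 hours of two-drug dosing of cells plated in 1536-well plates.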

NCI-H2373 (Mesothelioma) = test system: NCI-H2373 (Mesothelioma)
How it was run: as §1

[2] = test system: NCI-H1876 (Small Cell Lung Carcinoma)
How it was run: as §1

IST-MEL1 (Melanoma) = test system: IST-MEL1 (Melanoma)
How it was run: as §1

ES6 (Ewing's Sarcoma) = test system: ES6 (Ewing's Sarcoma)
How it was run: as §1

[3] = test system: NCI-H1341 (Small Cell Lung Carcinoma)
How it was run: as §1

[4] = test system: P30-OHK (B-Lymphoblastic Leukemia)
How it was run: as §1

[5] = test system: SKG-IIIa (Cervical Carcinoma)
How it was run: as §1

[6] = test system: SiHa (Cervical Carcinoma)
How it was run: as §1

AM-38 (Glioblastoma) = test system: AM-38 (Glioblastoma)
How it was run: as §1

[7] = test system: LS-1034 (Colorectal Carcinoma)
How it was run: as §1

[8] = test system: SAT (Head and Neck Carcinoma)
How it was run: as §1

[9] = test system: NCI-H596 (Other Solid Carcinomas)
How it was run: as §1

[10] = test system: COR-L88 (Small Cell Lung Carcinoma)
How it was run: as §1

[11] = test system: C-33-A (Cervical Carcinoma)
How it was run: as §1

GAK (Melanoma) = test system: GAK (Melanoma)
How it was run: as §1

[12] = test system: CL-11 (Colorectal Carcinoma)
How it was run: as §1

[13] = test system: SUP-M2 (T-Cell Non-Hodgkin's Lymphoma)
How it was run: as §1

[14] = test system: RCC-JW (Kidney Carcinoma)
How it was run: as §1

[15] = test system: IA-LM (Non-Small Cell Lung Carcinoma)
How it was run: as §1

SMILES	combination Emax [1]	combination Emax (NCI-H2373 (Mesothelioma))	combination Emax [2]	combination Emax (IST-MEL1 (Melanoma))	combination Emax (ES6 (Ewing's Sarcoma))	combination Emax [3]	combination Emax [4]	combination Emax [5]	combination Emax [6]	combination Emax (AM-38 (Glioblastoma))	combination Emax [7]	combination Emax [8]	combination Emax [9]	combination Emax [10]	combination Emax [11]	combination Emax (GAK (Melanoma))	combination Emax [12]	combination Emax [13]	combination Emax [14]	combination Emax [15]
Cn1cnc2c(F)c(Nc3ccc(Br)cc3Cl)c(C(=O)NOCCO)cc21 [Selumetinib] + C[C@@H]1COCCN1C2=NC(=NC(=C2)C3(CC3)[S@](=N)(=O)C)C4=C5C=CNC5=NC=C4 [AZD6738] (first compound max 10 µM, 7x7, partner max 10 µM)	0.324	0.463	0.895	0.74	0.367	0.809	0.889	0.214	0.209	0.706	0.811	0.561	0.36	0.494	0.894	0.667	0.873	1	0.386	0.287
CC(=O)Nc1cccc(-n2c(=O)n(C3CC3)c(=O)c3c(Nc4ccc(I)cc4F)n(C)c(=O)c(C)c32)c1 [Trametinib] + Cc1nc(-c2cn3c(n2)-c2ccc(-c4cnn(C(C)(C)C(N)=O)c4)cc2OCC3)n(C(C)C)n1 [Taselisib] (first compound max 1 µM, 7x7, partner max 10 µM)	0.539	0.766	0.796	0.932	0.607	0.927	0.49	0.527	0.302	0.909	0.787	0.941	0.81	0.154	0.669	0.985	0.989	0.534	0.556	0.486
CC1(C)CCC(CN2CCN(c3ccc(C(=O)NS(=O)(=O)c4ccc(NCC5CCOCC5)c([N+](=O)[O-])c4)c(Oc4cnc5[nH]ccc5c4)c3)CC2)=C(c2ccc(Cl)cc2)C1 [Venetoclax] + C1CN(CCC1(C(=O)N[C@@H](CCO)C2=CC=C(C=C2)Cl)N)C3=NC=NC4=C3C=CN4 [Capivasertib] (first compound max 1 µM, 7x7, partner max 3 µM)	0.238	0.422	0.259	0.36	0.47	0.551	0.678	0.224	0.282	0.0317	0.207	0.377	0.334	0.557	0.547	0.152	0.162	0.248	0.157	0.189
CC1(C)CCC(CN2CCN(c3ccc(C(=O)NS(=O)(=O)c4ccc(NCC5CCOCC5)c([N+](=O)[O-])c4)c(Oc4cnc5[nH]ccc5c4)c3)CC2)=C(c2ccc(Cl)cc2)C1 [Venetoclax] + C=CCn1c(=O)c2cnc(Nc3ccc(N4CCN(C)CC4)cc3)nc2n1-c1cccc(C(C)(C)O)n1 [AZD1775] (first compound max 1 µM, partner max 1 µM)	0.394	0.364	0.994	0.799	0.513	0.808	0.992	0.271	0.223	0.289	0.56	0.545	0.259	0.939	0.961	0.792	0.502	0.981	0.286	0.36
CC1(C)CCC(CN2CCN(c3ccc(C(=O)NS(=O)(=O)c4ccc(NCC5CCOCC5)c([N+](=O)[O-])c4)c(Oc4cnc5[nH]ccc5c4)c3)CC2)=C(c2ccc(Cl)cc2)C1 [Venetoclax] + CCN(CCO)CCCOc1ccc2c(Nc3cc(CC(=O)Nc4cccc(F)c4)[nH]n3)ncnc2c1 [AZD2811] (first compound max 1 µM, 7x7, partner max 1 µM)	0.333	0.232	0.742	0.504	0.32	0.495	1	0.229	0.172	0.221	0.114	0.187	0.207	0.667	0.312	0.242	0.267	0.898	0.184	0.249
CC1(C)CCC(CN2CCN(c3ccc(C(=O)NS(=O)(=O)c4ccc(NCC5CCOCC5)c([N+](=O)[O-])c4)c(Oc4cnc5[nH]ccc5c4)c3)CC2)=C(c2ccc(Cl)cc2)C1 [Venetoclax] + CN(C)CCCOc1ccc(-c2ccc3ncc4c(c3c2)n(C2CCOCC2)c(=O)n4C)cn1 [AZD0156] (first compound max 1 µM, 7x7, partner max 1 µM)	0.285	0.269	0.282	0.42	0.349	0.361	0.458	0.219	0.152	0.209	0.164	0.204	0.232	0.525	0.494	0.293	0.11	0.264	0.184	0.217
